Results taken from patent US12234211B2, “Cycloolefin substituted heteroaromatic compounds and their use” (HUTCHISON MEDIPHARMA LIMITED, priority 2017, dated 2025).

What was measured:
[1] = biological target: T1, IDH1-R132H (Homo sapiens, UniProt O75874, R132H); assay: Fluorescent determination of IDH1-R132H cell activity (2-HG in U87MGR132H cells); format: cell-based; conditions: 2-HG inhibition in U87MGR132H cells transfected with IDH1-R132H mutant plasmid
T1 construct: expressed in transfected cells; host or cells: U87MG cells (U87MGR132H)
T1 sequence (O75874 whole entry R132H): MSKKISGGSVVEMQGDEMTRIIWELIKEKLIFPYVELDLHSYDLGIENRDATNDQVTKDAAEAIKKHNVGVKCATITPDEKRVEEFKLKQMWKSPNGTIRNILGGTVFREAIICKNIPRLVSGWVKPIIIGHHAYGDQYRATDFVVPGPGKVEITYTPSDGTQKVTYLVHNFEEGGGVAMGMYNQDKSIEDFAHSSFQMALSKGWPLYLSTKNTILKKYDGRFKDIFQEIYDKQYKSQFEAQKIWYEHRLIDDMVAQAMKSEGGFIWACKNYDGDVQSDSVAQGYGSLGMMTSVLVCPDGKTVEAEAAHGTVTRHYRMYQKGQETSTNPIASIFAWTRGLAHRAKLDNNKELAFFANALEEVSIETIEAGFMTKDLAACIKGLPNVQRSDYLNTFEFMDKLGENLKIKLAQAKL

[2] = biological target: T2, IDH2-R140Q (Homo sapiens, UniProt P48735, R140Q); assay: Fluorescent determination of IDH2-R140Q cell activity (2-HG in U87MGR140Q cells); format: cell-based; conditions: 72 hours incubation, read-out: IC50 (2-HG inhibition)
T2 construct: expressed in transfected cells
T2 sequence (P48735 40-452 R140Q): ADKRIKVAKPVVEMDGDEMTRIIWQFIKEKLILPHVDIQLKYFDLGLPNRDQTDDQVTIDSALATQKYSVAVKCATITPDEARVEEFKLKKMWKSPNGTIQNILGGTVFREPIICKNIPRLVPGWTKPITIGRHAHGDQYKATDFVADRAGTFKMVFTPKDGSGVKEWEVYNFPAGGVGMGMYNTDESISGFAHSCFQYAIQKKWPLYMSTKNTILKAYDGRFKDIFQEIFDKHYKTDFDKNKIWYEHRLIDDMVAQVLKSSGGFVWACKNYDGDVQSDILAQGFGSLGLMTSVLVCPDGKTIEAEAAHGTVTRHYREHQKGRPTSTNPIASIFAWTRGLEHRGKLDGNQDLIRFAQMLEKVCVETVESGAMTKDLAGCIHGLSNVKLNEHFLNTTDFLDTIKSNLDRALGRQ

Row | Compound | IC50 [1] [nM] | IC50 [2] [nM]
1 | CCONc1nc(Nc2ccnc(C(F)(F)F)c2)nc(C2=C(F)C(O)C(F)(F)CC2)n1 (stereo not drawn) [Compound 212] | > 10000 | 63
2 | CONc1nc(Nc2ccnc(C(F)(F)F)c2)nc(C2=C(F)C(O)C(F)(F)CC2)n1 (stereo not drawn) [Compound 298] | > 10000 | 620
3 | [2H]C([2H])([2H])C([2H])(Nc1nc(N[C@H](C)C(F)(F)F)nc(C2=C(F)C(O)CCC2)n1)C([2H])([2H])[2H] (stereo partly drawn) [Compound 52] | 2240 | 229
4 | C[C@@H](Nc1nc(NOC(C)(C)C)nc(C2=C(F)C(O)C(F)(F)CC2)n1)C(F)(F)F (mixture of isomers) [Compound 294] | 9180 | 425
5 | CC(C)(C)ONc1nc(Nc2ccnc(Cl)c2)nc(C2=C(F)C(O)C(F)(F)CC2)n1 (stereo not drawn) [Compound 216] | 8520 | 82
6 | OC1C(F)=C(c2nc(Nc3ccnc(C(F)(F)F)c3)nc(NC(C3CC3)C3CC3)n2)CCC1(F)F (stereo not drawn) [Compound 220] | 2880 | 59
7 | CCCONc1nc(Nc2ccnc(C(F)(F)F)c2)nc(C2=C(F)C(O)C(F)(F)CC2)n1 (stereo not drawn) [Compound 217] | > 10000 | 69
8 | [2H]C1(O)C(F)=C(c2nc(NC3CC3)nc(N[C@H](C)C(F)(F)F)n2)CCC1(F)F (mixture of isomers) [Compound 279] | 9430 | 170
9 | Cc1cc(Nc2nc(NOC(C)(C)C)nc(C3=C(F)C(O)CCC3)n2)ccn1 (stereo not drawn) [Compound 204] | > 10000 | 209
10 | OC1CCCC(c2nc(NCC(F)(F)F)nc(NC3CC(F)(F)C3)n2)=C1F (stereo not drawn) [Compound 241] | 2060 | 100
11 | C[C@@H](Nc1nc(NCC2CC2)nc(C2=C(F)C(O)C(F)CC2)n1)C(F)(F)F (single isomer, unassigned) [Compound 226] | 5120 | 361
12 | CC(C)CNc1nc(N[C@H](C)C(F)(F)F)nc(C2=CC(O)CCC2)n1 (mixture of isomers) [Compound 134] | 2470 | 100
13 | CC(C)Nc1nc(Nc2ccc3sncc3c2)nc(C2=C(F)C(O)CCC2)n1 (stereo not drawn) [Compound 65] | > 10000 | 152
14 | [2H]C1(O)C(F)=C(c2nc(NC(C)C)nc(NC3CC(F)(F)C3)n2)CCC1(F)F [Compound 274, 3-(4-((3,3-difluorocyclobutyl)amino)-6-(isopropylamino)-1,3,5-triazin-2-yl)-2,6,6-trifluorocyclohex-2-en-1-D-1-ol] | 3280 | 84
15 | C[C@@H](Nc1nc(NC2CC2)nc(C2=C(F)C(O)C(F)(F)CC2)n1)C(F)(F)F (mixture of isomers) [Compound 238] | 7360 | 139
16 | C[C@@H](Nc1nc(N[C@H](C)C(F)(F)F)nc(C2=C(F)C(O)C(F)CC2)n1)C(F)(F)F (stereo partly drawn) [Compound 267, 3-(4,6-Bis(((R)-1,1,1-trifluoropropan-2-yl)amino)-1,3,5-triazin-2-yl)-2,6-difluorocyclohex-2-en-1-D-1-ol] | 3570 | 1330
17 | C[C@@H](Nc1nc(NCCF)nc(C2=C(F)C(O)CCC2)n1)C(F)(F)F (stereo partly drawn) [Compound 240] | > 10000 | 984
18 | CCCNc1nc(N[C@H](C)C(F)(F)F)nc(C2=C(F)C(O)[C@H](F)CC2)n1 (single isomer, unassigned) [Compound 230] | > 10000 | 658
19 | C[C@H](CF)Nc1nc(N[C@H](C)C(F)(F)F)nc(C2=C(F)C(O)CCC2)n1 (mixture of isomers) [Compound 169] | 9460 | 738
20 | C[C@H](Nc1nc(NOC(C)(C)C)nc(C2=C(F)C(O)C(F)(F)CC2)n1)C(F)(F)F (mixture of isomers) [Compound 293] | > 10000 | 637
21 | OC1C(F)=C(c2nc(Nc3ccnc(C(F)(F)F)c3)nc(N3CC(F)(F)C3)n2)CCC1(F)F (single isomer, unassigned) [Compound 221] | > 10000 | 487
22 | CC(C)Nc1nc(Nc2ccc3c(cnn3C)c2)nc(C2=C(F)C(O)CCC2)n1 (stereo not drawn) [Compound 64] | > 10000 | 1630
23 | CC(C)(C)ONc1nc(Nc2ccnc(F)c2)nc(C2=C(F)C(O)C(F)(F)CC2)n1 (stereo not drawn) [Compound 215] | > 10000 | 79
24 | C[C@H](Nc1nc(NCC(F)(F)F)nc(C2=C(F)C(O)C(F)(F)CC2)n1)C(F)(F)F (mixture of isomers) [Compound 270] | 2850 | 109

The remaining compounds from weak to strong by IC50 [1], led by results:

Row | IC50 [1] [nM] | IC50 [2] [nM] | Compound
25 | 2010 | 300 | C[C@@H](Nc1nc(N[C@H](C)C(F)(F)F)nc(C2=C(F)C(O)CCC2)n1)c1ccccc1 (mixture of isomers) [Compound 152, 2-Fluoro-3-(4-(((R)-1-phenylethyl)amino)-6-(((R)-1,1,1-trifluoropropan-2-yl)amino)-1,3,5-triazin-2-yl)cyclohex-2-en-1-ol]
26 | 1630 | 297 | C[C@@H](Nc1nc(NC(CF)CF)nc(C2=C(F)C(O)CCC2)n1)C(F)(F)F (stereo partly drawn) [Compound 41]
27 | 1520 | 278 | C[C@@H](Nc1nc(N[C@H](C)C(F)(F)F)nc(C2=C(F)C(O)CCC2)n1)C1CC1 (mixture of isomers) [Compound 158]
28 | 1510 | 564 | C[C@@H](Nc1nc(N[C@H](C)C(F)(F)F)c(F)c(C2=CC(O)CCC2)n1)C(F)(F)F (mixture of isomers) [Compound 207, 3-(5-fluoro-2,6-bis(((R)-1,1,1-trifluoropropan-2-yl)amino)pyrimidin-4-yl)cyclohex-2-en-1-ol]
29 | 1340 | 296 | C[C@@H](Nc1nc(NC2CCCCC2)nc(C2=CC(O)CCC2)n1)C(F)(F)F (mixture of isomers) [Compound 136]
30 | 1330 | 230 | C[C@H](Nc1nc(N[C@@H](C)C(F)(F)F)nc(C2=C(F)C(O)CCC2)n1)C(F)(F)F (mixture of isomers) [Compound 14]
31 | 917 | 36 | C[C@@H](Nc1nc(NCC2CC2)nc(C2=C(F)C(O)C(F)CC2)n1)C(F)(F)F (single isomer, unassigned) [Compound 225]
32 | 809 | 162 | CC(C)[C@@H](C)Nc1nc(N[C@H](C)C(F)(F)F)nc(C2=C(F)C(O)CCC2)n1 (mixture of isomers) [Compound 163]
33 | 619 | 259 | CCC(Nc1nc(N[C@H](C)C(F)(F)F)nc(C2=C(F)C(O)CCC2)n1)C(F)(F)F (mixture of isomers) [Compound 15]
34 | 476 | 177 | C[C@@H](Nc1nc(NC2CCC(F)(F)CC2)nc(C2=CC(O)CCC2)n1)C(F)(F)F (stereo partly drawn) [Compound 181]
35 | 296 | 137 | C[C@@H](Nc1nc(N[C@H](C)C(F)(F)F)nc(C2=C(F)C(O)C(F)CC2)n1)C(F)(F)F (stereo partly drawn) [Compound 269, 3-(4,6-Bis(((R)-1,1,1-trifluoropropan-2-yl)amino)-1,3,5-triazin-2-yl)-2,6-difluorocyclohex-2-en-1-D-1-ol]
36 | 282 | 203 | C[C@@H](Nc1nc(N[C@H](C)C(F)(F)F)nc(C2=C(F)C(O)CCC2)n1)C(F)(F)F (stereo partly drawn) [Compound 83, 3-(4,6-bis(((R)-1,1,1-trifluoropropan-2-yl)amino)-1,3,5-triazin-2-yl)-2-fluorocyclohex-2-en-1,6,6-D3-1-ol]
37 | 280 | 110 | C[C@@H](Nc1nc(NC2CC(F)(F)C2)nc(C2=C(F)C(O)CCC2)n1)C(F)(F)F (mixture of isomers) [Compound 31]
38 | 181 | 75 | C[C@@H](Nc1nc(N[C@H](C)C(F)(F)F)nc(C2=C(F)C(O)CCC2)n1)C(F)(F)F (stereo partly drawn) [Compound 82, (*)3-(4,6-Bis(((R)-1,1,1-trifluoropropan-2-yl)amino)-1,3,5-triazin-2-yl)-2-fluorocyclohex-2-en-6,6-D2-1-ol]
39 | 43 | 33 | C[C@@H](Nc1nc(N[C@H](C)C(F)(F)F)nc(C2=C(F)C(O)C(F)CC2)n1)C(F)(F)F (stereo partly drawn) [Compound 266, 3-(4,6-Bis(((R)-1,1,1-trifluoropropan-2-yl)amino)-1,3,5-triazin-2-yl)-2,6-difluorocyclohex-2-en-1-D-1-ol]
